Measured values from ChEMBL document CHEMBL4028827, “Discovery of indazole aldosterone synthase (CYP11B2) inhibitors as potential treatments for hypertension” (Bioorg Med Chem Lett, 2017).
pIC50: −log10 of the molar value.

Legend:
[1] = target: T1, Cytochrome P450 11B1, mitochondrial (Homo sapiens, UniProt P15538); test: Inhibition of human CYP11B1-8C7 expressed in Chinese hamster V79 cells using 11-deoxycortisol as substrate preincubated for 1 hr followed by substrate addition measured for 3 hrs by HTRF assay; type: ADME, cell-based
T1 sequence (P15538 whole entry): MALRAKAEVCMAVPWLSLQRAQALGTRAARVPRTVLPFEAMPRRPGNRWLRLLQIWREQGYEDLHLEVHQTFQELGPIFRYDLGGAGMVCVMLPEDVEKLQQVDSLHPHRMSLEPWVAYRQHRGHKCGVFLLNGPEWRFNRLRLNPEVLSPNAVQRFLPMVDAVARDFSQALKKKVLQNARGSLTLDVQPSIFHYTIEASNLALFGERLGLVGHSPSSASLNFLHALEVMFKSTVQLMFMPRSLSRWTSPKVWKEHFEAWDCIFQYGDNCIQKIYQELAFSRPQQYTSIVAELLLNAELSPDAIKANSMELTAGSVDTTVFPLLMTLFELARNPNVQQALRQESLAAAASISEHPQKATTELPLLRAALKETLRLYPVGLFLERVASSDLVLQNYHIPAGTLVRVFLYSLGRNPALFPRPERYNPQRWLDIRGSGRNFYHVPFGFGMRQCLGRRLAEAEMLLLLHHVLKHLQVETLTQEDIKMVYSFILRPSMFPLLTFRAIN

[2] = Selectivity ratio of IC50 for human CYP11B1-8C7 expressed in Chinese hamster V79 cells to IC50 for human CYP11B2-CLE9 expressed in Chinese hamster V79 cells
[3] = target: T2, Cytochrome P450 11B2, mitochondrial (Homo sapiens, UniProt P19099); test: Inhibition of human CYP11B2-CLE9 expressed in Chinese hamster V79 cells using 11-deoxycorticosterone as substrate preincubated for 1 hr followed by substrate addition measured for 3 hrs by HTRF assay; type: cell-based
T2 sequence (P19099 whole entry): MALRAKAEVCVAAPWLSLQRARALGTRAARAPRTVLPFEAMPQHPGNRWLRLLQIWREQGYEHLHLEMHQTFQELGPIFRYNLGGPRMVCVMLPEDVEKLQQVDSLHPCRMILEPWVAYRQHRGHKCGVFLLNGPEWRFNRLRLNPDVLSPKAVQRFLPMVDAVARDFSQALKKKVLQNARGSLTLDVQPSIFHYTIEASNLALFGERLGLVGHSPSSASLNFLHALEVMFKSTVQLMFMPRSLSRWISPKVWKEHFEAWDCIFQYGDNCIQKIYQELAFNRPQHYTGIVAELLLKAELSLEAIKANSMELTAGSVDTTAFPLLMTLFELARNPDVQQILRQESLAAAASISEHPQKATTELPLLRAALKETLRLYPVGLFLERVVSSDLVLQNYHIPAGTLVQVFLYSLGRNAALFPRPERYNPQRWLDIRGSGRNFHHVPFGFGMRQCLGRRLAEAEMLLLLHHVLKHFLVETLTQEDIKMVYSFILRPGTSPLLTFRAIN

[4] = target: Cytochrome P450 2D6 (Homo sapiens, UniProt P10635); test: Inhibition of hepatic CYP2D6 (unknown origin); type: ADME
Sequence of Cytochrome P450 2D6 (P10635 whole entry): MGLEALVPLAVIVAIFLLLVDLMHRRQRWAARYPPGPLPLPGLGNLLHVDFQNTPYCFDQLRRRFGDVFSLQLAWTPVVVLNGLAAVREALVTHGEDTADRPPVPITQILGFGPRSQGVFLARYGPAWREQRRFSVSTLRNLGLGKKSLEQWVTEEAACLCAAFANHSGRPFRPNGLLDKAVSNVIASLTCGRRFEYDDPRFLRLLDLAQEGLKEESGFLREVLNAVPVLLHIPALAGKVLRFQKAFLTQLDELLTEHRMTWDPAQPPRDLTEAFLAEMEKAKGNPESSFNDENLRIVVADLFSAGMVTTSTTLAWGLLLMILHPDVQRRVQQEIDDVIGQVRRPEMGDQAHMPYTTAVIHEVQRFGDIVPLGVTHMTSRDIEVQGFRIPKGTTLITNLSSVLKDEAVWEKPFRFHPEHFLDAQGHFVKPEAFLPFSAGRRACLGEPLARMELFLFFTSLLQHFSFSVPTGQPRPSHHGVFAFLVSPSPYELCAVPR

[5] = target: T3, Steroid 17-alpha-hydroxylase/17,20 lyase (Homo sapiens, UniProt P05093); test: Inhibition of human CYP17 expressed in African green monkey COS7 cells using 17-hydroxypregnenolone as substrate preincubated for 1 hr followed by substrate addition measured after 3 hrs by EIA; type: cell-based
T3 sequence (P05093 whole entry): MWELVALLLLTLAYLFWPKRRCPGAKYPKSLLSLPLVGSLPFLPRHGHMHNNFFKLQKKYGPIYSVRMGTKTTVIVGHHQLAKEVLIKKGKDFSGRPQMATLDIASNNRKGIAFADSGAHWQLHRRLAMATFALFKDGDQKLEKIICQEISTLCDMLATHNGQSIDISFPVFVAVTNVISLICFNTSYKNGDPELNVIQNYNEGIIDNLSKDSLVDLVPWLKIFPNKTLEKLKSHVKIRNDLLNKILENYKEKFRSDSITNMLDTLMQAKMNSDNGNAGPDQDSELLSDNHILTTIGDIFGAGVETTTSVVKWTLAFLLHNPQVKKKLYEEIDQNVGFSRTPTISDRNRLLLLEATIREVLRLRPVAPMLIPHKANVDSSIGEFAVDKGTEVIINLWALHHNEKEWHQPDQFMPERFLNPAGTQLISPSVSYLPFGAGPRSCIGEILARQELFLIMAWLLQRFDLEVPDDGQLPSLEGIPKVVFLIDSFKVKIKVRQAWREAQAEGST

[6] = target: Cytochrome P450 2C9 (Homo sapiens, UniProt P11712); test: Inhibition of hepatic CYP2C9 (unknown origin); type: ADME
Sequence of Cytochrome P450 2C9 (P11712 whole entry): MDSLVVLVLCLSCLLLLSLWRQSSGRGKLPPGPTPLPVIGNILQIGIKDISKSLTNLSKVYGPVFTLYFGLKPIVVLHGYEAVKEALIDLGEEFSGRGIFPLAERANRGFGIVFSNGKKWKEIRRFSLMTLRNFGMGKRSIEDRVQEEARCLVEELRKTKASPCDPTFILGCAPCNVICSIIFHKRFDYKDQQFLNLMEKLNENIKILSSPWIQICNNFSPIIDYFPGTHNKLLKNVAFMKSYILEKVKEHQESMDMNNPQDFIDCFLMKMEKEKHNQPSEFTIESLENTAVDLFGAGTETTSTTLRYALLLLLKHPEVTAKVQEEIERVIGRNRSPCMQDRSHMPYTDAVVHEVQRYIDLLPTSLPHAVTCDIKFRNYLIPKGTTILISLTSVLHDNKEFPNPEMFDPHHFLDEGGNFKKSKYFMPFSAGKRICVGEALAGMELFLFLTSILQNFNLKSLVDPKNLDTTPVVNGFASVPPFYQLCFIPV

[7] = target: T4, Steroid 21-hydroxylase (Homo sapiens, UniProt P08686); test: Inhibition of human CYP21 expressed in African green monkey COS7 cells using […] as substrate preincubated for 1 hr followed by substrate addition measured for 3 hrs by HTRF assay; type: cell-based
T4 sequence (P08686 whole entry): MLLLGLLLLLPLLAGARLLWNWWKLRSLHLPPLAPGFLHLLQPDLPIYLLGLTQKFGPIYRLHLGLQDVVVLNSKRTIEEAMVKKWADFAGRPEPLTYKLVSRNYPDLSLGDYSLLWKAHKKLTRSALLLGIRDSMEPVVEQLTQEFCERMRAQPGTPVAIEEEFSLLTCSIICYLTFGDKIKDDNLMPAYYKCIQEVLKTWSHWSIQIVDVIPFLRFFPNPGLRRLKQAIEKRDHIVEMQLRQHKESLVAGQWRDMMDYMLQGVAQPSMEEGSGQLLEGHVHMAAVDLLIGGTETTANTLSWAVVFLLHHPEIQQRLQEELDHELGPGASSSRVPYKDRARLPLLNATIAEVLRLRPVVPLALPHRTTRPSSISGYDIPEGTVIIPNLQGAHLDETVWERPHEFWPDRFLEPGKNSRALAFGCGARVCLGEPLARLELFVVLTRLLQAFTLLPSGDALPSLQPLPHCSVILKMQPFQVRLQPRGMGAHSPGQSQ

[8] = target: Cytochrome P450 3A4 (Homo sapiens, UniProt P08684); test: Inhibition of hepatic CYP3A4 (unknown origin); type: ADME
Sequence of Cytochrome P450 3A4 (P08684 whole entry): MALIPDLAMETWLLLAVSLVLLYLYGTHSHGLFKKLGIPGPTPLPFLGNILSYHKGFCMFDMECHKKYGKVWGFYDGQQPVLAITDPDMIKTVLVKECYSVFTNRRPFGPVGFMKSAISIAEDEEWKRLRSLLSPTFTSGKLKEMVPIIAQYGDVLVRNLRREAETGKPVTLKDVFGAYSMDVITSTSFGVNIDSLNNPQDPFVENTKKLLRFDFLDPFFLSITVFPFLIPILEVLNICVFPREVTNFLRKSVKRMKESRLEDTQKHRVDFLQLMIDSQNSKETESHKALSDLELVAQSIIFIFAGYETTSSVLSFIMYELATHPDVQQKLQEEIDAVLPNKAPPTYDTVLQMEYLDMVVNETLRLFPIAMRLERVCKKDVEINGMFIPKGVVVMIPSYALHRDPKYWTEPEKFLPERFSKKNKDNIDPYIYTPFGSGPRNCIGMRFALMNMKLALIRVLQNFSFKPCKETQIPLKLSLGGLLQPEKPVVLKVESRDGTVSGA

[9] = target: T5, Cytochrome P450 11B2, mitochondrial (Rattus norvegicus, UniProt P30099); test: Inhibition of rat CYP11B2-1F4 expressed in Chinese hamster V79 cells using 11-deoxycorticosterone as substrate preincubated for 1 hr followed by substrate addition measured for 3 hrs by HTRF assay; type: cell-based
T5 sequence (P30099 whole entry): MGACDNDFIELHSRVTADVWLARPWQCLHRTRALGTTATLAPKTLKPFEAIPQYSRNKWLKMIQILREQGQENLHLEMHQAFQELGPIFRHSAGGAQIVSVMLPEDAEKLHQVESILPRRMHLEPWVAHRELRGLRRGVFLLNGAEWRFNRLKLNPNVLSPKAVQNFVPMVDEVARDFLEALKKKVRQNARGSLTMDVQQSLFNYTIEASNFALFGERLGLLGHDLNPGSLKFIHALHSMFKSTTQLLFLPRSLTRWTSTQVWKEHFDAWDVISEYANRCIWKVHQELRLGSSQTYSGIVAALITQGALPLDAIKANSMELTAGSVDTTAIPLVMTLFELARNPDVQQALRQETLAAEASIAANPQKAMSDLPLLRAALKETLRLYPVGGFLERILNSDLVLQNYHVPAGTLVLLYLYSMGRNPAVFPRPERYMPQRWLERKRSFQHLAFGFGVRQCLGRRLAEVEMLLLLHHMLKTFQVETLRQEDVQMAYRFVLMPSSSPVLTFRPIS

[10] = target: T6, Aromatase (Homo sapiens, UniProt P11511); test: Inhibition of CYP19 (unknown origin) using MFC as substrate and NADPH as cofactor preincubated for 10 mins with cofactor followed by substrate/enzyme addition measured after 30 mins
T6 sequence (P11511 whole entry): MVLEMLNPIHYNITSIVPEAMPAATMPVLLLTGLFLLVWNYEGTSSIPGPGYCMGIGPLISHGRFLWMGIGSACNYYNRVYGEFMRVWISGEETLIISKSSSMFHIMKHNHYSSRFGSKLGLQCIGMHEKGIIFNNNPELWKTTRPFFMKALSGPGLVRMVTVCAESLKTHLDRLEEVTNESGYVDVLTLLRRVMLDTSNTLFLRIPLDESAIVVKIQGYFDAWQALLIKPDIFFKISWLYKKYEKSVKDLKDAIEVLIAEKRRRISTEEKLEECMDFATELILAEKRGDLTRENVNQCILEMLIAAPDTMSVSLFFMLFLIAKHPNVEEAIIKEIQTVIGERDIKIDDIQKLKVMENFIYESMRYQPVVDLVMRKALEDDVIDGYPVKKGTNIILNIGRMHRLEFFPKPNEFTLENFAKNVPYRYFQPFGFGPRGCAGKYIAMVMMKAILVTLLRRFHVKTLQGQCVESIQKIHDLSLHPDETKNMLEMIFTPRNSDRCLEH

[11] = Intrinsic clearance in rat liver microsomes at […] preincubated for 10 mins followed by NADPH addition measured after 45 mins by LC-MS analysis; type: ADME, microsome; conditions: read-out: CLH

Row | pIC50 [1] | pIC50 [3] | CLint scaled [11] [mL/min/kg] | Compound | Ratio IC50 [2] | further results
1 | 5.08 | 6.28 | – | CC(C)(O)c1cncc(-n2ncc3ccc(Cl)cc32)c1 | >16 | –
2 | 6.07 | 7.11 | – | C[C@](O)(c1cncc(-n2nc(C(F)(F)F)c3ccccc32)c1)C(F)(F)F | 11 | pIC50 [4]: < 4.30; pIC50 [5]: < 5.00; pIC50 [6]: 5.14; pIC50 [7]: < 5.00; pIC50 [8]: < 4.30; pIC50 [9]: 7.11; pIC50 [10]: 5.27
3 | 6.68 to 6.71 | 7.89 to 7.96 | 30 | CC(C)(O)c1cncc(-n2ncc3cc(F)ccc32)c1 | 15 - 19 | –
4 | 7.65 to 7.66 | 8.88 to 8.89 | – | Cc1nn(-c2cncc(C(C)(C)O)c2)c2cccc(F)c12 | 17 | pIC50 [4]: < 4.30; pIC50 [5]: < 5.00; pIC50 [6]: 5.33; pIC50 [7]: < 5.00; pIC50 [8]: < 4.30; pIC50 [9]: 8.89; pIC50 [10]: 5.16
5 | – | 7.66 | – | COC(=O)c1cccc2c1cnn2-c1cncc(C(C)(C)O)c1 | – | –
6 | 5.91 to 5.92 | 6.29 | < 20 | CC(C)(O)c1cncc(-n2ncc3cc(C(F)(F)F)ccc32)c1 | 2 | –
7 | 7.96 to 7.97 | 9.05 | < 20 | CC(C)(O)c1cncc(-n2ncc3cccc(F)c32)c1 | 12 | –
8 | 8.05 to 8.74 | 9.10 to 9.52 | < 20 | CC(C)(O)c1cncc(-n2ncc3c(F)ccc(F)c32)c1 | 6 - 11 | –
9 | 5.08 | 6.12 | – | CC(C)(O)c1cncc(-n2nc(C3CC3)c3ccccc32)c1 | >11 | –
10 | 6.68 | 8.10 to 8.11 | – | Cc1cccc2c1cnn2-c1cncc(C(C)(C)O)c1 | 27 | –
11 | 6.00 | 7.07 | – | COc1ccc2c(cnn2-c2cncc(C(C)(C)O)c2)c1 | 12 | –
12 | 6.33 | 7.56 to 7.57 | – | CC(C)(O)c1cncc(-n2ncc3cc(Cl)ccc32)c1 | 17 | –
13 | 5.08 | 5.64 | – | CC(C)(O)c1cncc(-n2ncc3ccc(C(F)(F)F)cc32)c1 | >4 | –
14 | 7.32 to 7.33 | 8.67 to 8.70 | 230 | CC(O)(c1cncc(-n2ncc3cc(F)ccc32)c1)C(F)(F)F (configuration not stated) | 24 | –
15 | 5.08 | 5.94 | – | CC(C)(O)c1cncc(-n2ncc3cc(C#N)ccc32)c1 | >7 | –
16 | 5.08 | 6.34 | 85 | Fc1cncc(-n2ncc3cc(F)ccc32)c1 | >18 | –
17 | 6.27 | 7.82 | < 20 | CC(C)(O)c1cncc(-n2ncc3ccccc32)c1 | 36 | –
18 | 6.04 | 7.01 | – | Cc1ccc2c(cnn2-c2cncc(C(C)(C)O)c2)c1 | 9 | –
19 | 8.11 to 8.96 | 9.40 to 9.70 | – | CC(C)(O)c1cncc(-n2ncc3c(Cl)ccc(F)c32)c1 | 5 - 20 | –
20 | 5.89 | 7.36 | – | COc1cncc(-n2ncc3cc(F)ccc32)c1 | 30 | –
21 | 5.08 | 6.66 | 43 | Fc1ccc2c(cnn2-c2cccnc2)c1 | >38 | –
22 | 5.70 | 7.10 to 7.11 | 83 | CC(C)(O)c1cncc(-n2ncc3ccc(F)cc32)c1 | 25 | –
23 | 5.77 | 7.05 to 7.06 | 300 | Fc1ccc2c(cnn2-c2cncc(C(F)(F)F)c2)c1 | 19 | –
24 | 5.85 | 7.60 | – | COc1nn(-c2cncc(C(C)(C)O)c2)c2ccccc12 | 57 | –
25 | 6.82 to 6.83 | 8.10 to 8.12 | 64 | CC(C)(O)c1cncc(-n2ncc3c(F)cccc32)c1 | 19 | –
26 | 5.08 | 6.52 | – | CC(C)(O)c1cncc(-n2nc(C(F)(F)F)c3ccccc32)c1 | >27 | –
27 | 6.28 | 7.51 | – | COC(=O)c1cncc(-n2ncc3cc(F)ccc32)c1 | 17 | –
28 | 6.11 | 7.47 | – | Cc1nn(-c2cncc(C(C)(C)O)c2)c2ccccc12 | 44 | –
